Measurements published in patent US9308223B2, “Om vitamin formula” (priority 2008, dated 2016).

Test system: ill-health symptoms of Lead intoxication
Assay: Inventor's trial-and-error self-administration of vitamins to alleviate Lead intoxication symptoms
Assay type: in vivo, human
Settings: for soothing of Lead intoxication symptoms: Beta Carotene around 20,000 I.U. and vitamin E around 100 I.U. in the formula, Lead intoxication with no other health conditions
From the text: I was already taking vitamins, so I started working with variety of vitamins in varying doses to alleviate the suffering. This was like an experiment on my body to find a balanced dose to alleviate Lead intoxication symptoms. It took me one and half decade to find the correct mix and proportion of vitamins. I will explain later why it took me so many years.
Vitamins dose was working correctly, however, I was taking certain quantity of milk (Calcium) in my diet so dose was adjusted with certain quantity of milk also. […] However, most of the symptoms as described earlier were alleviated with vitamins. In 2001, dizziness was extreme and glucose test was very close to borderline. Additional symptoms like some weight gain, elevated blood pressure and elevated cholesterol were noted. I realized immediately that I have done something wrong in working out the vitamin dose for Lead intoxication so I reversed engineering to figure out the dose with less quantity of milk. In 2005-2006 timeframe, I started gaining confidence that vitamin dose to cure Lead intoxication is absolutely correct and I decided to file the patent papers. […] I wish I could have this dose in 1990 then I didn't have to go through all the suffering and pain from 1990-2005, almost fifteen years. Therefore the vitamin dose or multi-vitamin formula for Lead intoxication is determined by trial and error method and is the result of fifteen years of work. Sometimes God makes the things happen for purpose and I was chosen the vehicle.
All these symptoms depend upon the amount of lead in body and the kind of diet and vitamins I was taking. I went through lot of ups and downs in figuring out the vitamin dose or formula to cure Lead induced ill-health symptoms. I gained so much experience by working trial and error methods on vitamins that I could simulate most of these symptoms in my body. […] I have shown this formula below as OM-50 dose, primarily because some vitamins' quantities are in 50 unit. Multiply all the ingredients by 2 will give OM-100, and divide by 2 will give OM-25, and so on.

Molecule | effectiveness during heavy bleeding and/or elevated sugar level (Beta Carotene 30,000 I.U. in the formula, Lead intoxication plus heavy bleeding and/or elevated sugar level) | soothing of Lead intoxication symptoms
CC1=C(/C=C/C(C)=C/C=C/C(C)=C/C=C/C=C(C)/C=C/C=C(C)/C=C/C2=C(C)CCCC2(C)C)C(C)(C)CCC1 [Beta Carotene] | very effective | soothe very effectively
vitamin E | – | soothe very effectively
